Measurements reported in patent US12522562B2, “Intestine-specific partial agonists of farnesoid X receptor and uses thereof” (EWHA DrugDesignHouse Co., Ltd., priority 2022, dated 2026).
Like-named read-outs stand apart in the source and are kept apart here. Marks after values point to notes of the source that are not given here. Blank lines part the entries; values can stand above or below the compound they belong to.

Legend:
FXR [1] = target: T1, FXR (Homo sapiens, UniProt Q96RI1); experiment: PathHunter NHR protein interaction assay, antagonist mode (GW4064 challenge at EC80); assay type: cell-based; settings: pre-incubation, then GW4064 at EC80
T1 sequence (Q96RI1 1-486): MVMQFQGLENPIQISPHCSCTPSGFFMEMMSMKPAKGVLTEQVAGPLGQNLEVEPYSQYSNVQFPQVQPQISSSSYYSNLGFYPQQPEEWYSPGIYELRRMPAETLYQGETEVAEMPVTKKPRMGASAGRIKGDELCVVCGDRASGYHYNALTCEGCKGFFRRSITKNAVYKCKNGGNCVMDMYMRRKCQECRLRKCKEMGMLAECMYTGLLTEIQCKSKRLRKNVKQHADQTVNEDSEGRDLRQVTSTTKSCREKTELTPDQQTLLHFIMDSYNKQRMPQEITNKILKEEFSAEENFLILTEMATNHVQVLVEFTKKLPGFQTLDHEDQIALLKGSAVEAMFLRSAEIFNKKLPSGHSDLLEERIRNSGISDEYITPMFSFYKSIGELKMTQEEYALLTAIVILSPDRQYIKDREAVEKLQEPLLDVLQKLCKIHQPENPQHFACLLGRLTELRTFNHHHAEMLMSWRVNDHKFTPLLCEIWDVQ

FXR [2] = target: T1, FXR; experiment: PathHunter NHR protein interaction assay, agonist mode (FXR); settings: for % max. rel. efficacy: Table 5; for % max. rel. efficacy / Emax: relative to GW4064
Experimental: PathHunter® CHO-K1 FXR protein interaction cells were expanded from freezer stocks according to standard procedures. Cells were seeded in a total volume of 20 μL into white walled, 384-well microplates and incubated at 37° C. for the appropriate time prior to testing. Assay media contained charcoal-dextran filtered serum to reduce the level of hormones present. For agonist determination, cells were incubated with sample to induce response. […] For antagonist determination, cells were pre-incubated with antagonist followed by agonist challenge at the EC80 concentration. […] Microplates were read following signal generation with a PerkinElmer Envision™ instrument for chemiluminescent signal detection. Compound activity was analyzed using CBIS data analysis suite (ChemInnovation, CA). For agonist mode assays, percentage activity was calculated using the following formula: % Activity=100%×(mean RLU of test sample−mean RLU of vehicle control)/(mean MAX control ligand−mean RLU of vehicle control).
In this assay, two weakly complementing fragments of the β-galactosidase are expressed within stably transfected cells. The complementing fragments of the β-galactosidase are translationally fused to the C-terminus of a full-length FXR and to the steroid receptor coactivator peptide (SRCP), respectively. When bound by ligand, the FXR will migrate to the nucleus and recruit the SRCP domain, whereby complementation occurs, generating a unit of active β-galactosidase and production of chemiluminescent signal. Thus, measurement of chemiluminescent signal directly reflects FXR-coactivator interaction.

[3] = Pharmacokinetic studies of Example 11 in rats; assay type: in vivo, Sprague-Dawley rats; settings: for detected after (time after oral administration): oral Example 11, 80 mg/kg
Experimental: To investigate whether Example 11 is indeed an intestine-selective/specific FXR agonist, its pharmacokinetic profile was evaluated. Male Sprague-Dawley rats (7-week old, 240-260 g) were purchased from Orient Bio. Inc. (Seongnam, Korea). Rats were kept in the cage maintained under a controlled environment (temperature of 23±3° C., relative humidity of 50±5%, and 12 h dark-light cycle) for at least 3 days. Rats were fasted overnight before dose administration. The Example 11 was dissolved in a mixture of DMSO, Tween 80, and 0.9% saline solution (v:v:v, 1:1:8) at a concentration of 2.5 mg/mL for intravenous injection (IV). Also, Example 11 was dissolved in corn oil for oral administration (PO). Rats were divided into two groups; IV group and PO group including at least 6 animals per group. After anesthetized with isoflurane, rats were given the dose of 5 mg/kg via IV injection or 80 mg/kg via PO administration by oral gavage into the stomach. Blood samples (approximately 0.25 mL) were obtained by subclavian vein puncture at 0, 0.033, 0.083, 0.167, 0.333, 0.667, 1, 2, 3, 5, 7, 10, and 24 h after IV injection. After PO administration, blood samples were obtained at 0, 0.083, 0.167, 0.333, 0.667, 1, 2, 3, 5, 7, 10, and 24 h post-dose. Subsequently, blood samples were collected in 1.5-mL Eppendorf tube on an ice. The tubes were centrifuged at 13500 rpm for 15 min at 4° C. to separate the plasma fraction. Then, the plasma samples were stored at […] until HPLC analysis. To prepare the samples for HPLC analysis, 5 μL of Example 11 or Example 24 and 5 μL of internal standard, Example 4 were added to 45 μL of plasma. For extraction, 45 μL of MeCN was added to the mixture. Then, the mixture was vortexed for 2 min and centrifuged at 13500 rpm for 15 min at room temperature. The 60 μL of clear supernatant was transferred to an insert. Then, the HPLC auto-injector was programmed to inject 40 μL of the sample to the HPLC system for analysis. The linearity of the calibration curve was obtained by plotting the peak area ratio (area of Example 11 or area of Example 24/area of Example 4). Pharmacokinetic parameters were calculated by non-compartmental analysis of the plasma concentration-time profiles using Winnonlin® Professional version 8.01 software (Pharsight Corporation, Mountain View, CA). Oral bioavailability (F) was calculated by the ratio of the dose-corrected area under the plasma drug concentration-time curve (AUClast) between oral administration and intravenous injection.

[4] = Fang et al., Nat. Med. 2015; cited from earlier work
PPARδ = target: T2, PPARδ (Homo sapiens, UniProt Q03181); experiment: Nuclear receptor selectivity panel (PathHunter NHR protein interaction assay); settings: read-out: ref. compd (EC50); reference compound for PPARδ
T2 sequence (Q03181 1-441): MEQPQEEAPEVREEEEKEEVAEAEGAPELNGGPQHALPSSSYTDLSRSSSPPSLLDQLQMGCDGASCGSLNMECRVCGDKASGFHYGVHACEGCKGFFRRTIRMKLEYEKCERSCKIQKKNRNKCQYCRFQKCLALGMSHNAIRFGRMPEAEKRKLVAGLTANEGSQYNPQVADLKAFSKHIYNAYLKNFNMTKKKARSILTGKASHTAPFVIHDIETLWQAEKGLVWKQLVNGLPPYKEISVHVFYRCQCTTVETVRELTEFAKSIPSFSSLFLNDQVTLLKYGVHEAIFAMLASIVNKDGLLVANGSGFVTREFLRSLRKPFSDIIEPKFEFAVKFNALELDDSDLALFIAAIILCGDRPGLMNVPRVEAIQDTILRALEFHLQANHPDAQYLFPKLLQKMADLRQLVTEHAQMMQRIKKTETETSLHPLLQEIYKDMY

[5] = tested on: patients with non-cirrhotic NASH; settings: 100 mg, Phase II; cited from earlier work
FXR [6] = target: T1, FXR; settings: Chianelli et al., J. Med. Chem. 2020; cited from earlier work
patients with NASH = settings: cited from earlier work
[7] = rat plasma, intravenous dose of Example 11, 5 mg/kg, Example 24 measured as metabolite
[8] = rat, intravenous dose of Example 11, 5 mg/kg, Example 24 measured as metabolite
[9] = mean ± SEM of two or three independent experiments in duplicate
[10] = read-out: % max. rel. efficacy, Table 4, top conc. 3.3 μM, one experiment in duplicate
[11] = read-out: % max. rel. efficacy, Table 5, mean ± SEM of two or three independent experiments in duplicate
[12] = rat, intravenous Example 11, 5 mg/kg

SMILES: CN(C)c1ccc(-c2ccc(CN(C(=O)C3CCCCC3)c3cc(F)cc(/C=C/C(=O)O)c3)cc2C#N)cc1 [Example 24]
% antagonistic efficacy (FXR [1]; 3.3 μM): 7% | % antagonistic efficacy (FXR [1]; 10 μM): 26% | % agonistic efficacy (FXR [2]; Table 7, 10 μM): 0% | AUClast [3, 7]: 1200 ± 100 ng·h/mL | t1/2 [3, 7]: 14.4 ± 3 min | detected in plasma until (time after administration) ([3]; rat, intravenous Example 11, 5 mg/kg, metabolite): 1 h | CL [3, 8]: 70 ± 6.7 mL/min/kg | Vss [3, 8]: 1.4 ± 0.2 L/kg | detected after (time after oral administration) ([3]; rat): 3 h

SMILES: O=C(O)c1ccnc(N2CC(O)(c3ccc(OCc4c(-c5c(Cl)cccc5Cl)noc4C4CC4)cc3Cl)C2)c1 [cilofexor]
median relative decrease in hepatic steatosis [5]: −22.7% | moderate to severe pruritus (patients) [5]: 14%

SMILES: Cn1nc(C(=O)N(Cc2ccccc2)Cc2ccc(C(=O)O)cc2)c2c1-c1cc(Cl)ccc1OC2 [nidufexor]
maximum efficacy relative to GW4064 (FXR [6]): 57% | reduction of LFC (liver fat content) (patients with NASH; Phase II, NASH): about 30% | rate of pruritus (patients with NASH; high-dose group): 54% | rate of pruritus (patients with NASH; low-dose group): 30%

SMILES: COC(=O)/C=C/c1cc(F)cc(N(Cc2ccc(-c3ccc(N(C)C)cc3)c(C#N)c2)C(=O)C2CCCCC2)c1 [Example 11, (E)-3-(3-((2-cyano-4′-dimethylaminobiphenyl-4-ylmethyl)cyclohexanecarbonylamino)-5-fluorophenyl)acrylic Acid Methyl Ester]
EC50 (FXR [2]; Table 4, 5 concentrations, 3-fold dilution from 3.3 μM (GW4064: 10 conc. from 10 μM), one experiment in duplicate, NA = inactive at 3.3 μM): 900 nM | % max. rel. efficacy (FXR [2]; [9]): 53 ± 3^c* % | Emax (FXR [2]; [10]): 56% | Emax (FXR [2]; [11]): 53 ± 3% | bioavailability ([3]; male, Sprague-Dawley, plasma, rat, oral 80 mg/kg vs intravenous 5 mg/kg, dose-corrected AUClast ratio, read-out: F (oral bioavailability)): 4% | AUC(0-t) ([3]; male, Sprague-Dawley, rat plasma, oral dose of Example 11, 80 mg/kg in corn oil): 1500 ± 600 ng·h/mL | detected in plasma until (time after administration) [3, 12]: 0.333 h | metabolism after intravenous administration [3, 12]: rapidly metabolized to the corresponding carboxylic acid, Example 24 | detected after (time after oral administration) ([3]; rat): 5 h

More lines, main results first:

EC50 (FXR [2]): 1000 nM | EC50 (FXR [2]; Table 2, 5 concentrations, 3-fold dilution from 3.3 μM (GW4064: 10 conc. from 10 μM), one experiment in duplicate, NA = inactive at 3.3 μM): 800 nM | % max. rel. efficacy (FXR [2]; [9]): 29 ± 4^b % | Emax (FXR [2]; read-out: % max. rel. efficacy, Table 2, top conc. 3.3 μM, one experiment in duplicate): 21% | Emax (FXR [2]; [10]): 34% | Emax (FXR [2]; [11]): 29 ± 4%
SMILES: COC(=O)/C=C/c1cccc(N(Cc2ccc(-c3ccc(N(C)C)cc3)cc2)C(=O)C2CCCCC2)c1 [Fexaramine, reference compound]
oral bioavailability [4]: 12%

EC50 (PPARδ): 6 nM
SMILES: CCCc1c(OCCCOc2ccc(OCC(=O)O)cc2)ccc(C(C)=O)c1O [L-165,041]
